Reference: PMC7251097, “Aspartate/asparagine-β-hydroxylase: a high-throughput mass spectrometric assay for discovery of small molecule inhibitors” (Scientific Reports, 2020)
Where a name gives a salt, the structure may show the parent alone. Read-outs that look alike come from different tables or passages of the source.

Target: T1, His6-AspH315–758 (human aspartate/asparagine-β-hydroxylase, AspH) (Homo sapiens, UniProt Q12797)
T1 construct: N-Terminally His6-tagged human AspH315–758 (His6-AspH315–758) was produced in E. coli BL21 (DE3) cells; made in house; host or cells: E. coli BL21 (DE3), pET-28a(+) vector
T1 sequence (Q12797 315-758): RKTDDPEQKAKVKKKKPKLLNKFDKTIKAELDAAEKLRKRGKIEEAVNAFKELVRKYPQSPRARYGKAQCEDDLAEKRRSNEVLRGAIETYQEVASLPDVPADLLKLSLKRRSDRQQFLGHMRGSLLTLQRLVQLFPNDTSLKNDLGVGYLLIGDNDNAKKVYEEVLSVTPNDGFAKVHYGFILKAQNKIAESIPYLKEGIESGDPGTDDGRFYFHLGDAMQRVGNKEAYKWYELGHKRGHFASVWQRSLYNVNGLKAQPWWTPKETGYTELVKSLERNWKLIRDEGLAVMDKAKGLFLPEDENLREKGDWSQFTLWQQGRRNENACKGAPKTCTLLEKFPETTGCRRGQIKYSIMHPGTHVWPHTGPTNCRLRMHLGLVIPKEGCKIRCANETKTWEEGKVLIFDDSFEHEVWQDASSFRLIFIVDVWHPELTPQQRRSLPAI
Experiment: SPE-MS AspH inhibition assay (LOPAC screen at fixed 20 μM and IC50 dose-response), hydroxylation of cyclic peptide hFX-CP101–119
Type: biochemical
Conditions: for IC50: 50 nM His6-AspH315–758, 1.0 μM hFX-CP101–119, 3 μM 2OG, 2 μM Fe(II), 50 mM HEPES pH 7.5, 20 °C, mean ± SD, n = 2 (2,4-PDCA n = 10), read-out: IC50

[1] = LOPAC compound at fixed 20 uM, plate 1, normalised to DMSO and 2,4-PDCA controls
[2] = LOPAC Plate 4, compound at 20 uM, substrate conversion
[3] = LOPAC Plate 4, compound at 20 uM, read-out: % inhibition
[4] = LOPAC compound at fixed 20 uM, substrate conversion, plate 1
[5] = LOPAC compound at 20uM, plate 2, conversion of substrate peptide
[6] = LOPAC compound at 20uM, plate 2, normalised to DMSO and 2,4-PDCA controls
[7] = LOPAC compound at 20uM, plate 3, conversion of substrate peptide
[8] = plate 5 (Pfitzer), test compounds at fixed 20 μM
[9] = plate 5 (Pfitzer), test compounds at fixed 20 μM, mean conversion DMSO 32.88
[10] = LOPAC Plate 4, compound at 20 uM
[11] = LOPAC compound at 20uM, plate 2, normalised to DMSO and 2,4-PDCA controls, read-out: Plate 2 (% inhibition)
[12] = AspH activity, fixed compound concentration 20 μM, initial LOPAC screen, 0.5%v/v DMSO, read-out: Inhibition at 20 µM [%]
[13] = AspH activity, fixed compound concentration 20 μM, initial LOPAC screen, 0.5%v/v DMSO

`CC(=O)c1c(O)c(C)c(O)c(Cc2c(O)c3c(c(C(=O)/C=C/c4ccccc4)c2O)OC(C)(C)C=C3)c1O` [Rottlerin] was tested, and the “% conversion” value was 14.64% and the inhibition at 20 µM was 64%.

In the case of `CCCCc1oc2ccccc2c1C(=O)c1cc(I)c(OCCN(CC)CC)c(I)c1` [Amiodarone hydrochloride], the “Plate 1 (% inhibition)” value [1] is reported as 32.10%.

`CN(C)NC(=O)CCC(=O)O` [Daminozide, daminozide, reference compound] was tested, and the “IC50 [μM]” value (pH 7.5) was “inactive”.

In the case of `O=C(O)c1cccnc1C(=O)O` [Quinolinic acid], the “% conversion” value [2] is reported as 7.93% and the inhibition at 20 µM [3] is reported as 83.6%.

In the case of `OC(CCN1CCCCC1)(c1ccccc1)C1CC2C=CC1C2` (stereo not shown) [Biperiden hydrochloride], the “Plate 1 (% inhibition)” value [1] is reported as -10.34% and the “Plate 1 (% conversion)” value [4] is reported as 39.34%.

`CC(C)(C)c1cc(/C=C(\C#N)C(N)=S)cc(C(C)(C)C)c1O` [Tyrphostin AG 879] was tested, and the “% conversion” value [2] was 26.24%.

For `CC(C)[C@@H]1CC[C@@H](C)C[C@@H]1P(=O)(c1ccccc1)c1ccccc1` [DPO-1], the “Plate 2 (% conversion)” value [5] was 40.63% and the “Plate 2 (% inhibition)” value [6] was -13.96%.

`Nc1ccn([C@H]2CC[C@@H](CO)O2)c(=O)n1` [2,3-dideoxycytidine] was tested, and the “Plate 2 (% conversion)” value [5] was 37.68% and the “Plate 2 (% inhibition)” value [6] was -5.15%.

For `Cl.O=C1NCCc2[nH]c(-c3ccncc3)cc21` [PHA 767491 hydrochloride], the “Plate 1 (% inhibition)” value [1] was -17.71% and the “Plate 1 (% conversion)” value [4] was 41.82%.

For `Clc1ccc(C(c2ccccc2Cl)C(Cl)Cl)cc1` (stereo not shown), the “Plate 1 (% inhibition)” value [1] was -5.18% and the “Plate 1 (% conversion)” value [4] was 37.61%.

With `O=C(N[C@H]1CN2CCC1CC2)c1cc2ccoc2cn1` [PHA-543613] the “Plate 3 (% conversion)” value [7] was 37.15%, the “Plate 5 (% inhibition)” value [8] was 12.80% and the “Plate 5 (% conversion)” value [9] was 31.96%.

For `COc1ccccc1N1CCN(CCN2C(=O)CC3(CCCC3)CC2=O)CC1.Cl.Cl` [BMY 7378 dihydrochloride], the “Plate 1 (% inhibition)” value [1] was -11.73% and the “Plate 1 (% conversion)” value [4] was 39.81%.

With `NCCS(=O)(=O)O` [Taurine] the “% conversion” value [2] was 39.69% and the inhibition at 20 µM [3] was -9.43%.

`CCN(CC)CCNC(=O)c1c(C)[nH]c(/C=C2\C(=O)Nc3ccc(F)cc32)c1C` [Sunitinib] was tested, and the “Plate 5 (% inhibition)” value [8] was 67.34% and the “Plate 5 (% conversion)” value [9] was 13.39%.

In the case of `N#CC(=C(/N)Sc1ccccc1N)/C(C#N)=C(/N)Sc1ccccc1N` [U0126], the “% inhibition” value [10] is reported as -0.28% and the “% conversion” value [2] is reported as 36.57%.

For `CNCCc1ccc(O)c(O)c1.Cl` [N-Methyldopamine hydrochloride], the “Plate 2 (% conversion)” value was 9.52% and the “Plate 2 (% inhibition)” value [6] was 78.96%.

In the case of `COc1ccccc1N1CCN(CCCNc2c(C)c(=O)n(C)c(=O)n2C)CC1` [Urapidil, 5-Methyl-], the “% conversion” value is reported as 36.82%.

For `O=C([O-])c1cc2cc(Cc3cccnc3)ccc2o1.[Na+]` [Furegrelate sodium], the “Plate 2 (% conversion)” value [5] was 36.88% and the “Plate 2 (% inhibition)” value [6] was -2.76%.

With `C[N+](C)(C)CCOP(=O)([O-])OP(=O)([O-])OC[C@H]1O[C@@H](n2ccc(N)nc2=O)[C@H](O)[C@@H]1O.[Na+]` the “Plate 2 (% conversion)” value [5] was 36.80% and the “Plate 2 (% inhibition)” value [6] was -2.53%.

`COc1ccc2c(c[n+](C)c3c4cc5c(cc4ccc23)OCO5)c1OC` [Chelerythrine chloride] was tested, and the “Plate 1 (% conversion)” value was 32.96% and the “Plate 1 (% inhibition)” value [1] was 8.68%.

In the case of `CC1CNCCN1S(=O)(=O)c1cccc2cnccc12.Cl.Cl` (stereo not shown), the “Plate 3 (% conversion)” value [7] is reported as 5.68%.

`CN(CCOc1ccc(NS(C)(=O)=O)cc1)CCc1ccc(NS(C)(=O)=O)cc1` [Dofetilide] was tested, and the inhibition at 20 µM [11] was -3.76%, the “Plate 5 (% inhibition)” value [8] was -1.04% and the “Plate 5 (% conversion)” value [9] was 36.67%.

With `C[C@]12C=CC(=O)C=C1CC[C@@H]1C2=CC[C@]2(C)[C@@H](C(=O)CN3CCN(c4cc(N5CCCC5)nc(N5CCCC5)n4)CC3)CC[C@@H]12.O=C(O)/C=C\C(=O)O` [U-74389G maleate] the “% conversion” value was 25.11% and the “% inhibition” value [10] was 33.28%.

With `Nc1ncnc2c1ncn2[C@@H]1O[C@H](CO)[C@@H](O)[C@H]1O` [Adenosine] the “Plate 1 (% inhibition)” value [1] was 4.27% and the “Plate 1 (% conversion)” value [4] was 34.44%.

For `CC(=O)Nc1nnc(S(N)(=O)=O)s1` [Acetazolamide], the “Plate 1 (% inhibition)” value [1] was 9.71% and the “Plate 1 (% conversion)” value [4] was 32.61%.

With `CN(C)c1cc(NC(=O)CNC(C)(C)C)c(O)c2c1C[C@H]1C[C@H]3[C@H](N(C)C)C(O)=C(C(N)=O)C(=O)[C@@]3(O)C(O)=C1C2=O` [Tigecycline, tigecycline, reference compound] the IC50 was 7.6 ± 1.95 µM, the inhibition at 20 µM [12] was 95.3% and the “Plate 5 (% inhibition)” value [8] was 90.85%. The “Plate 5 (% conversion)” value [9] was 5.39%.

`N[C@@H]1CON=C1O` [D-Cycloserine] was tested, and the “Plate 1 (% inhibition)” value [1] was -7.97% and the “Plate 1 (% conversion)” value [4] was 38.55%.

For `O=C(O)CCc1ccc(NCc2cccc(Oc3ccccc3)c2)cc1` [GW9508], the “Plate 2 (% conversion)” value [5] was 35.17% and the inhibition at 20 µM [11] was 2.34%.

`N=C(N)NC(=O)c1nc(Cl)c(N)nc1N` [Amiloride hydrochloride] was tested, and the “Plate 1 (% inhibition)” value [1] was 4.62% and the “Plate 1 (% conversion)” value [4] was 34.32%.

For `O=C(Nc1cccnc1)N1CCC(Cc2cccc(Oc3ccc(C(F)(F)F)cn3)c2)CC1` [PF 3845 hydrate], the “Plate 1 (% conversion)” value was 45.36% and the “Plate 1 (% inhibition)” value was -28.26%.

In the case of `C[C@]12CC[C@@H]3c4ccc(O)cc4CC[C@H]3[C@@H]1CCC2=O` [Estrone], the “Plate 2 (% conversion)” value is reported as 37.75% and the inhibition at 20 µM [11] is reported as -5.35%.

In the case of `Br.C=CCN1CCc2c(cc(O)c(O)c2Cl)C(c2ccccc2)C1` (racemic) [(±)-Chloro-APB hydrobromide, reference compound], the “Inhibition at 20 µM [%]” value [13] is reported as 95.8%, the “Plate 2 (% conversion)” value [5] is reported as 3.87% and the “Plate 2 (% inhibition)” value [6] is reported as 95.82%.

For `N#Cc1cc2nc([O-])c([O-])nc2cc1[N+](=O)[O-].[Na+].[Na+]` [CNQX disodium], the “Plate 2 (% conversion)” value [5] was 39.74% and the “Plate 2 (% inhibition)” value [6] was -11.30%.

In the case of `NC(CCP(=O)(O)O)C(=O)O` (racemic) [(±)-2-Amino-4-phosphonobutyric acid], the “Plate 1 (% conversion)” value is reported as 37.71% and the “Plate 1 (% inhibition)” value is reported as -5.48%.

For `Cc1ccc(/C(=C\CN2CCCC2)c2ccccn2)cc1.Cl` [Triprolidine hydrochloride], the “% inhibition” value [10] was -7.68% and the “% conversion” value [2] was 39.09%.

For `Oc1cc2c(cc1O)CN(C(=S)NCCc1ccc(Cl)cc1)CCC2` [Capsazepine, capsazepine, reference compound], the IC50 was 3.41 ± 0.28 µM, the inhibition at 20 µM [12] was 99.7% and the “Plate 2 (% conversion)” value [5] was 2.59%. It also gave an inhibition at 20 µM [11] of 99.7%.

In the case of `CCC1(c2ccc(N)cc2)CCC(=O)NC1=O` (racemic) [(±)-p-Aminoglutethimide], the “Plate 1 (% conversion)” value is reported as 34.85% and the “Plate 1 (% inhibition)” value is reported as 3.03%.

With `CC(C)(C)NC[C@H](O)COc1nsnc1N1CCOCC1.O=C(O)/C=C\C(=O)O` [S(-)-Timolol maleate] the “% conversion” value [2] was 29.54%.

For `CC(=O)O[C@H]1C[C@@H]2CC[C@@H]3[C@H](CC[C@@]4(C)[C@H]3C[C@H]([N+]3(C)CCCCC3)[C@@H]4OC(C)=O)[C@@]2(C)C[C@@H]1[N+]1(C)CCCCC1` [Pancuronium bromide], the “Plate 3 (% conversion)” value was 37.93%.

For `N#Cc1ccc([C@H]2CCCC[C@H]2O)cc1C(F)(F)F` [PF-998425], the “Plate 5 (% conversion)” value [9] was 24.94%.

`CN=c1nc(-c2ccccc2)n(-c2ccccc2)s1` [SCH-202676, reference compound] was tested, and the IC50 (listed as C00007) was 0.51 ± 0.08 µM, the IC50 was ~0.5 µM and the “Inhibition at 20 µM [%]” value [13] was 100.6%. For the same compound, the “% inhibition” value [10] was 100.56% and the “% conversion” value [2] was 2.15%.

In the case of `CN[C@@H]1CC[C@@H](c2ccc(Br)cc2)c2ccccc21.Cl` [CP-53631], the “Plate 5 (% conversion)” value is reported as 37.76% and the “Plate 5 (% inhibition)” value is reported as -4.23%.

`Nc1ncnc2c1nc(Sc1ccc(Cl)cc1)n2C1OC2COP(=O)(O)OC2C1O` (stereo in doubt) [8-(4-Chlorophenylthio)-cAMP sodium] was tested, and the “Plate 1 (% inhibition)” value [1] was -2.91% and the “Plate 1 (% conversion)” value [4] was 36.85%.

`CCN(CC)CCCC(C)Nc1ccnc2cc(Cl)ccc12` (stereo not shown) [Chloroquine diphosphate] was tested, and the “Plate 1 (% conversion)” value was 38.59% and the “Plate 1 (% inhibition)” value was -8.09%.

With `OC(CCN1CCCCC1)(c1ccccc1)C1CCCCC1` (stereo not shown) [Trihexyphenidyl hydrochloride] the “% conversion” value [2] was 39.76% and the inhibition at 20 µM [3] was -9.65%.

For `Cc1c2ccncc2c(C)c2c1[nH]c1ccccc12` [Ellipticine], the “Plate 2 (% conversion)” value was 45.95% and the inhibition at 20 µM [11] was -29.9%.

With `CN(C)CCC=C1c2ccccc2C=Cc2ccccc21` [Cyclobenzaprine hydrochloride] the “Plate 1 (% inhibition)” value [1] was -15.86% and the “Plate 1 (% conversion)” value [4] was 41.20%.

In the case of `Clc1ccc2nsnc2c1NC1=NCCN1` [Tizanidine hydrochloride], the “% conversion” value [2] is reported as 37.51%.
